Counter-ions that a name gives are not always drawn.
What was measured:
Test in all cases: MIC, standard broth dilution method in microtitre
Assay type in all cases: cell-based
E. faecalis ATCC 29212 = conditions: Enterococcus faecalis, ATCC29212
Procedure: (§1) Using a standard broth dilution method in microtitre, compounds were tested for antibacterial activity. The compounds in the above examples gave minimum inhibitory concentrations (MICs) less than 1 microgram per millilitre against erythromycin-sensitive and erythromycin-resistant strains of Streptococcus pneumoniae and Streptococcus pyogenes.
(§2) In addition, the MIC (μg/mL) of test compounds against various organisms was determined including:
(§3) S. aureus Smith ATCC 13709, S. pneumoniae SP030, S. pyogenes 3565, E. faecalis ATCC 29212, H. influenzae ATCC 49247, M. catarrhalis ATCC 23246.

[1] = tested on: S. aureus Smith ATCC 13709; conditions: Staphylococcus aureus, ATCC13709
Procedure: as §1, §2, §3

S. pneumoniae SP030 = conditions: Streptococcus pneumoniae
Procedure: as §1, §2, §3

S. pyogenes 3565 = conditions: Streptococcus pyogenes
Procedure: as §1, §2, §3

[2] = tested on: erythromycin-resistant strains of Streptococcus pneumoniae
Procedure: as §1

[3] = tested on: erythromycin-resistant strains of Streptococcus pyogenes
Procedure: as §1

H. influenzae ATCC 49247 = conditions: Haemophilus influenzae, ATCC49247
Procedure: as §1, §2, §3

[4] = tested on: M. catarrhalis ATCC 23246; conditions: Moraxella catarrhalis, ATCC23246
Procedure: as §1, §2, §3

SMILES	MIC (E. faecalis ATCC 29212)	MIC [1]	MIC (S. pneumoniae SP030)	MIC (S. pyogenes 3565)	MIC [2]	MIC [3]	MIC (H. influenzae ATCC 49247)	MIC [4]
CC[C@H]1OC(=O)[C@H](C)[C@@H](O[C@H]2C[C@@](C)(OC)[C@@H](OC(=O)CCNCCCc3cc4c(cc3F)c(=O)c(C(=O)O)cn4CC)[C@H](C)O2)[C@H](C)[C@@H](O[C@@H]2O[C@H](C)C[C@H](N(C)C)[C@H]2O)[C@](C)(OC)C[C@@H](C)C(=O)[C@H](C)[C@@H](O)[C@]1(C)O [Example 1, 4″-O-{3-[3-(3-Carboxy-1,4-dihydro-1-ethyl-6-fluoro-4-oxo-7-quinolinyl)propylamino]propionyl}-6-O-methylerythromycin A]	≤ 1 µg/mL	≤ 1 µg/mL	≤ 1 µg/mL	≤ 1 µg/mL	–	–	–	–
CC[C@@H]1OC(=O)[C@H](C)[C@H](O[C@@H]2C[C@](C)(OC)[C@H](OC(=O)CCNCCCc3cc4c(cc3F)c(=O)c(C(=O)O)cn4CC)[C@H](C)O2)[C@@H](C)[C@H](O[C@@H]2O[C@H](C)C[C@H](N(C)C)[C@@H]2O)[C@](C)(O)C[C@H](C)CN(C)[C@H](C)[C@@H](O)[C@]1(C)O [Example 2, 4″-O-{3-[3-(3-Carboxy-1,4-dihydro-1-ethyl-6-fluoro-4-oxo-7-quinolinyl)propylamino]propionyl}-azithromycin tris trifluoroacetate salt]	≤ 1 µg/mL	≤ 1 µg/mL	≤ 1 µg/mL	≤ 1 µg/mL	–	–	–	–
CC[C@@H]1OC(=O)[C@H](C)[C@H](O[C@@H]2C[C@](C)(OC)[C@H](OC(=O)CCNCCCc3ccc4c(c3)c(=O)c(C(=O)O)cn4CC)[C@H](C)O2)[C@@H](C)[C@H](O[C@@H]2O[C@H](C)C[C@H](N(C)C)[C@@H]2O)[C@](C)(O)C[C@H](C)CN(C)[C@H](C)[C@@H](O)[C@]1(C)O [Example 5, 4″-O-{3-[3-(3-Carboxy-1,4-dihydro-1-ethyl-4-oxo-6-quinolinyl)propylamino]propionyl}-azithromycin]	–	–	–	–	≤ 0.25 µg/mL	≤ 0.25 µg/mL	–	–
CC[C@@H]1OC(=O)[C@H](C)[C@H](O[C@@H]2C[C@](C)(OC)[C@H](OC(=O)CCNCCCc3ccc4c(c3)c(=O)c(C(=O)O)cn4CC)[C@H](C)O2)[C@@H](C)[C@H](O[C@@H]2O[C@H](C)C[C@H](N(C)C)[C@@H]2O)[C@](C)(O)C[C@H](C)CN(C)[C@@H](C)[C@H]2OC(=O)O[C@@]12C [Example 6, 4″-O-{3-[3-(3-Carboxy-1-dihydro-1-ethyl-4-oxo-6-quinolinyl)propylamino]propionyl}-azithromycin-11,12-carbonate]	≤ 1 µg/mL	≤ 1 µg/mL	≤ 1 µg/mL	≤ 1 µg/mL	≤ 0.25 µg/mL	≤ 0.25 µg/mL	≤ 2 µg/mL	≤ 2 µg/mL
CC[C@@H]1OC(=O)[C@H](C)[C@H](O[C@@H]2C[C@](C)(OC)[C@H](OC(=O)CCNCCCc3ccc4c(c3)c(=O)c(C(=O)O)cn4CC)[C@H](C)O2)[C@@H](C)[C@H](O[C@@H]2O[C@H](C)C[C@H](N(C)C)[C@@H]2O)[C@](C)(OC)C[C@H](C)C(=O)[C@@H](C)[C@H]2NC(=O)O[C@@]12C [Example 7, 4″-O-{3-[3-(3-Carboxy-1,4-dihydro-1-ethyl-4-oxo-6-quinolinyl)propylamino]-propionyl}-6-O-methyl-11-desoxy-11-(R)-amino-erythromycin A 11,12-carbamate diformate salt]	–	–	–	–	≤ 0.25 µg/mL	≤ 0.25 µg/mL	≤ 2 µg/mL	≤ 2 µg/mL
CC[C@@H]1OC(=O)[C@H](C)[C@H](O[C@@H]2C[C@](C)(OC)[C@H](OC(=O)CCNCCCc3ccc4c(c3)c(=O)c(C(=O)OC)cn4CC)[C@H](C)O2)[C@@H](C)[C@H](O[C@@H]2O[C@H](C)C[C@H](N(C)C)[C@@H]2O)[C@](C)(OC)C[C@H](C)C(=O)[C@@H](C)[C@H]2NC(=O)O[C@@]12C [Example 8, 4″-O-{3-[3-(3-Carboxy-1,4-dihydro-1-ethyl-4-oxo-6-quinolinyl)propylamino]propionyl}-6-O-methyl-11-desoxy-11-(R)-amino-erythromycin A 11,12-carbamate methyl ester diformate salt]	≤ 1 µg/mL	≤ 1 µg/mL	≤ 1 µg/mL	≤ 1 µg/mL	≤ 0.25 µg/mL	≤ 0.25 µg/mL	–	–

From US20070293472A1, “Novel 14 and 15 Membered Ring Compounds” (Glaxo Group Limited, priority 2003, published 2007)
